One assay deals with T1, human α4β7 integrin (Homo sapiens, UniProt P13612+P26010).
T1 construct: expressed in transfected cells; host or cells: K562 cells, stably transfected
T1 sequence (P13612 34-1032): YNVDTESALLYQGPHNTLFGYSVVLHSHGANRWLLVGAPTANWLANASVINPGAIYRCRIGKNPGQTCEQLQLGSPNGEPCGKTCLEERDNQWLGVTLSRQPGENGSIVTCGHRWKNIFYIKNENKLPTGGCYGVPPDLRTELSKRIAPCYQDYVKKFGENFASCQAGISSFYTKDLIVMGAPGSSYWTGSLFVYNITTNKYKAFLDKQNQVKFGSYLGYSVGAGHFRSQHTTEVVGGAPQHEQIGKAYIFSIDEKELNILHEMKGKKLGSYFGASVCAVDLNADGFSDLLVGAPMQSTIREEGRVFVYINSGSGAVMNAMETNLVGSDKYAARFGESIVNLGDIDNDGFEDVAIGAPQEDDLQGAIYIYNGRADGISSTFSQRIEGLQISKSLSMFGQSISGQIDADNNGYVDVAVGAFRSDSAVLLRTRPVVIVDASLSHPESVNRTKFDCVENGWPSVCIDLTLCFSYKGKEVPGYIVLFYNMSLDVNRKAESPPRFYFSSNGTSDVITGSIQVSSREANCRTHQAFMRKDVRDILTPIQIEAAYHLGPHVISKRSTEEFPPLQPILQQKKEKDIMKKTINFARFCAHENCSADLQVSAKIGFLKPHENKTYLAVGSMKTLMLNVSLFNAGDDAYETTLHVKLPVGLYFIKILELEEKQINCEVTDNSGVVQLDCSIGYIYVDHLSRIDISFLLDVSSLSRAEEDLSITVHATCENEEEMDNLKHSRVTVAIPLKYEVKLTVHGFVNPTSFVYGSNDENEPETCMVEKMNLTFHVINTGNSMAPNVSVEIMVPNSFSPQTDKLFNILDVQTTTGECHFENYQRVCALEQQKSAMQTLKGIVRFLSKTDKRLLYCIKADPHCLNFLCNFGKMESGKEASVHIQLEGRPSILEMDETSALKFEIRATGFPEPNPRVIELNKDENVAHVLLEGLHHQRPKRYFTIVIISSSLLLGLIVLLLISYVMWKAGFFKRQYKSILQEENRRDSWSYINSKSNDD
T1 sequence (P26010 20-798): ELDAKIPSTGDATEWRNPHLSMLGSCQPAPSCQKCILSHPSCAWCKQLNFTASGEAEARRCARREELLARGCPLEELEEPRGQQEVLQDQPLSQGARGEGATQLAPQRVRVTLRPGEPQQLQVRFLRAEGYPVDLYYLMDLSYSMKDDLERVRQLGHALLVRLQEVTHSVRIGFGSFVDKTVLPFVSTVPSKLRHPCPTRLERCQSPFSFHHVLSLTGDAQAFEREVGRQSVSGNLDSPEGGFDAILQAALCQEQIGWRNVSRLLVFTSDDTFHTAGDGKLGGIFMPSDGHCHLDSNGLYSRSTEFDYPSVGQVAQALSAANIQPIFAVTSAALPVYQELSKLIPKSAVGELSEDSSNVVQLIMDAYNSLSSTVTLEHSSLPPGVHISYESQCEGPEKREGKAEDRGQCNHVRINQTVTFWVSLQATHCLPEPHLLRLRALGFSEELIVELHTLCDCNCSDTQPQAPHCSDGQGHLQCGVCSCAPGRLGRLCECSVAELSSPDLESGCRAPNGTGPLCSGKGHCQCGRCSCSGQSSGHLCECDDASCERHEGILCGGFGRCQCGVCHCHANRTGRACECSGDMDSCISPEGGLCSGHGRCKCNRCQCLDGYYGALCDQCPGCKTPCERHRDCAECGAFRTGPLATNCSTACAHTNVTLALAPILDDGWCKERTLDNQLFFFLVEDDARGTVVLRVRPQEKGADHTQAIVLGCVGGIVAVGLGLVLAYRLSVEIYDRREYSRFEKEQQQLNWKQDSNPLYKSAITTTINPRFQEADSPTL
Briefly: α4β7-K562 Cell Adhesion Assay (α4β7 Mediated Adhesion/MAdCAM-1). Conditions: α4β7-K562 cell adhesion to hMAdCAM-1; read-out: α4β7 IC50. In kind it is cell-based. On the procedure: α4β7-K562 Cell Adhesion Assay (α4β7 Mediated Adhesion/MAdCAM-1)
M2 anti-FLAG Antibody Coated 96-well plates (Sigma) were coated for 1 hour at 4° C. with 2-8 μl/well recombinant FLAG-hMAdCAM-1 contained in 100 μL of Dulbecco's PBS, pH 7.4, with 1% BSA and 1 mM Mn ^+2 (PBS-BSA-Mn). Plates were washed once with PBS-BSA-Mn. Buffer was removed and compounds to be tested (50 μL) were added at 2× concentration. Stably transfected K562 cells expressing human α4β7 integrin, (50 μL at 2×10^6/mL) that had been labeled with 100 μg/ml carboxymethyl fluorescein diacetate succinimidyl ester (CFDA-SE; Molecular Probes) for 15 min at 37° C. were added to each well and allowed to adhere for 1 h at room temperature. Plates were washed 4× in PBS-BSA-Mn and then cells were lysed for 2 minutes by addtion of 100 μL of PBS without Ca, Mg supplemented with 0.1 M NaOH.

Another assay concerns the target T2, α4β1 (Homo sapiens, UniProt P05556+P13612).
T2 construct: Ramos Cell Adhesion Assay (α4β1 Mediated Adhesion/VCAM-1); endogenous in cells; host or cells: Ramos cells
The assay can be described thus: Ramos Cell Adhesion Assay (α4β1 Mediated Adhesion/VCAM-1). In kind it is cell-based. As to conditions: Ramos cell adhesion to hVCAM-1; read-out: α4β1 IC50. The protocol: Ramos Cell Adhesion Assay (α4β1 Mediated Adhesion/VCAM-1)
Immulon 96 well plates (Dynex) were coated with 100 μL recombinant hVCAM-1 at 4.0 μg/mL in 0.05 M NaCO3 buffer pH 9.0 overnight at 4° C. (R&D Systems). Plates were washed 2 times in PBS with 1% BSA and blocked for 1 h @ room temperature in this buffer. PBS was removed and compounds to be tested (50 μL) were added at 2× concentration. Ramos cells, (50 μL at 2×10^6/mL) labeled with 5 μM Calcein AM (Molecular Probes) for 1 h at 37° C., were added to each well and allowed to adhere for 1 h at room temperature. Plates were washed 4× in PBS+1% BSA and cells were lysed for 15 minutes in 100 μL of 1 M Tris pH 8.0 with 1% SDS.

T2 sequence (P05556 21-798, one chain of several): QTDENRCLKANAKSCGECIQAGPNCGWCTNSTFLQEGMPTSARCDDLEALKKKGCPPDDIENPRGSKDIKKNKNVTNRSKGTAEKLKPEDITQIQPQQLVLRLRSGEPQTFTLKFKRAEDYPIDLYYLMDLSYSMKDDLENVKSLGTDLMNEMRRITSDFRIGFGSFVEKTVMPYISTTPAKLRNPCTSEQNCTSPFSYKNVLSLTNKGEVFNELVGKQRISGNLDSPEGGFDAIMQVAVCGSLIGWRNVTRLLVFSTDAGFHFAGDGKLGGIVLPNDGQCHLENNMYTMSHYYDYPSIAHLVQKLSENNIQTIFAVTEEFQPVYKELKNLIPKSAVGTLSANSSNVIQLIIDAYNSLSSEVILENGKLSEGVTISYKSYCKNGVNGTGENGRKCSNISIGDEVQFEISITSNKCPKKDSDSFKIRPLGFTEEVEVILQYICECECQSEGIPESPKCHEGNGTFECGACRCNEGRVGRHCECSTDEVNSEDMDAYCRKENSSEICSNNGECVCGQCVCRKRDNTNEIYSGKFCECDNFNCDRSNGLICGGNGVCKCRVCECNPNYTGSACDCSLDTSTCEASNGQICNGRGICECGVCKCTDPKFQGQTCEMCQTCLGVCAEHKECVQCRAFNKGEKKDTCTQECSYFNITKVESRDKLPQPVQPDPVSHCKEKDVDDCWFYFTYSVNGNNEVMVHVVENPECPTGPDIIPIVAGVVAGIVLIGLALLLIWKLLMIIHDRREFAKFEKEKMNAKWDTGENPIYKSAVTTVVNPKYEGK

As usually defined, the IC50 is the concentration that gives 50% inhibition. In the case of `COc1cnn(C)c(=O)c1-c1ccc(C[C@H](NC(=O)c2ccc[nH]2)C(=O)O)cc1` [Cpd 84], the IC50 on human α4β7 integrin was 0.041 µM; on α4β1, > 5 µM.
For `COc1cnn(C(C)(C)C)c(=O)c1-c1ccc(C[C@H](NC(=O)c2c(Cl)cccc2Cl)C(=O)O)cc1` [Cpd 85], in that order: 0.042 µM and 0.794 µM.
Consider `Cn1ncc(OCC2CC2)c(-c2ccc(C[C@H](NC(=O)c3c(Cl)cccc3Cl)C(=O)O)cc2)c1=O` [Cpd 86, (S)-3-[4-(5-Cyclopropylmethoxy-2-methyl-3-oxo-2,3-dihydro-pyridazin-4-yl)-phenyl]-2-(2,6-dichloro-benzoylamino)-propionic acid], for which the IC50 came out at 0.044 µM at human α4β7 integrin and 0.212 µM on α4β1.
Consider `COc1cnn(C)c(=O)c1-c1ccc(CC(NC(=O)C(C(C)C)n2cccc2)C(=O)O)cc1` (stereo not shown) [Cpd 87, 3-[4-(5-Methoxy-2-methyl-3-oxo-2,3-dihydro-pyridazin-4-yl)-phenyl]-2-(3-methyl-2-pyrrol-1-yl-butyrylamino)-propionic acid], for which the results for the IC50 at human α4β7 integrin and on α4β1 were 0.044 µM and 0.278 µM, respectively.
Taken in the same sequence, the figures for `O=C(N[C@@H](Cc1ccc(-c2c(-n3ncc4ccccc43)cnn(CCO)c2=O)cc1)C(=O)O)c1c(Cl)cccc1Cl` [Cpd 88] were 0.046 µM and 1.04 µM.
Taken in the same sequence, the figures for `COc1cnn(C)c(=O)c1-c1ccc(C[C@H](NC(=O)[C@@H](C(C)C)N(C)C(=O)CCc2ccccc2)C(=O)O)cc1` [Cpd 90] were 0.048 µM and 4.5 µM.
Regarding `COCCOCCOC(=O)[C@H](Cc1ccc(-c2c(OC)cnn(C)c2=O)cc1)NC(=O)c1c(Cl)cccc1Cl` [Cpd 91], the concentration for half-maximal inhibition (IC50) was 0.049 µM on human α4β7 integrin and 2.38 µM on α4β1.
For `CC(C)(C)C(=O)Cn1ncc(NC2CC2)c(-c2ccc(C[C@H](NC(=O)c3c(Cl)cccc3Cl)C(=O)O)cc2)c1=O` [Cpd 92], in that order: 0.052 µM and > 5 µM.
For `O=C(N[C@@H](Cc1ccc(-c2c(Cl)cnn(CC3CC3)c2=O)cc1)C(=O)O)c1c(Cl)cccc1Cl` [Cpd 93, (S)-3-[4-(5-Chloro-2-cyclopropylmethyl-3-oxo-2,3-dihydro-pyridazin-4-yl)-phenyl]-2-(2,6-dichloro-benzoylamino)-propionic acid], the IC50 on human α4β7 integrin was 0.052 µM; on α4β1, > 5 µM.
Consider `O=C(N[C@@H](Cc1ccc(-c2c(-n3cc(Br)cn3)cnn(CCO)c2=O)cc1)C(=O)O)c1c(Cl)cccc1Cl` [Cpd 94], for which the IC50 on human α4β7 integrin stood at 0.053 µM; at α4β1 it was 1.32 µM.
As to `Cn1ncc(O)c(-c2ccc(C[C@H](NC(=O)c3c(Cl)cccc3Cl)C(=O)O)cc2)c1=O` [Cpd 95, (S)-2-(2,6-Dichloro-benzoylamino)-3-[4-(5-hydroxy-2-methyl-3-oxo-2,3-dihydro-pyridazin-4-yl)-phenyl]-propionic acid], the IC50 on human α4β7 integrin was 0.0535 µM; on α4β1 it was 0.48 µM.
In the case of `COc1cnn(C)c(=O)c1-c1ccc(C[C@H](NC(=O)CN(C)C(=O)OCc2ccccc2)C(=O)O)cc1` [Cpd 96], the values for the IC50 on human α4β7 integrin and on α4β1 were 0.056 µM and 1.79 µM, respectively.
As for `COc1cnn(C)c(=O)c1-c1ccc(CC(NC(=O)c2c(Cl)cccc2Cl)C(=O)OCCO)cc1` (stereo not shown) [Cpd 97, 2-(2,6-Dichloro-benzoylamino)-3-[4-(5-methoxy-2-methyl-3-oxo-2,3-dihydro-pyridazin-4-yl)-phenyl]-propionic acid 2-hydroxy-ethyl ester], the IC50 on human α4β7 integrin came to 0.058 µM; at α4β1, 3.24 µM.
For `COc1cnn(C)c(=O)c1-c1ccc(C[C@H](NC(=O)C2(NC3CCCCC3)CCOCC2)C(=O)O)cc1` [Cpd 98], in that order: 0.248 µM and 3.84 µM.
For `COc1cnn(C)c(=O)c1-c1ccc(C[C@H](NC(=O)C23CCC(CC2)CN3)C(=O)O)cc1` [Cpd 99], the half-maximal inhibitory concentration (IC50) was determined as 0.06 µM on human α4β7 integrin and 0.265 µM at α4β1.
With `COc1cnn(C)c(=O)c1-c1ccc(C[C@H](NC(=O)[C@@H]2C3CCC(CC3)N2C(=O)CCC(C)C)C(=O)O)cc1` [Cpd 100], the IC50 at human α4β7 integrin turned out to be 0.06 µM; on α4β1 it was 0.272 µM.
Taken in the same sequence, the figures for `COc1cnn(C)c(=O)c1-c1ccc(C[C@H](NC(=O)[C@@H]2C3CCC(CC3)N2C(=O)OCc2ccccc2)C(=O)O)cc1` [Cpd 103] were 0.067 µM and 0.629 µM.
For `COc1cnn(C)c(=O)c1-c1ccc(CC(NC(=O)C(NC(=O)Cc2ccsc2)C(C)C)C(=O)O)cc1` (stereo not shown) [Cpd 107, 3-[4-(5-Methoxy-2-methyl-3-oxo-2,3-dihydro-pyridazin-4-yl)-phenyl]-2-[3-methyl-2-(2-thiophen-3-yl-acetylamino)-butyrylamino]-propionic acid], in that order: 0.071 µM and 0.306 µM.
On to `COc1cnn(C)c(=O)c1-c1ccc(C[C@H](NC(=O)[C@@H]2C3CCC(CC3)N2S(=O)(=O)c2ccccc2)C(=O)O)cc1` [Cpd 108], for which the IC50 at human α4β7 integrin was 0.072 µM; at α4β1, 0.0027 µM.
Taken in the same sequence, the figures for `CC(C)COC(=O)N[C@@H](Cc1ccc(-c2c(OCC(C)C)cnn(C)c2=O)cc1)C(=O)O` [Cpd 111] were 0.082 µM and > 5 µM.
Take `Cn1ncc(OC(F)F)c(-c2ccc(C[C@H](NC(=O)c3c(Cl)cccc3Cl)C(=O)O)cc2)c1=O` [Cpd 112, (S)-2-(2,6-Dichloro-benzoylamino)-3-[4-(5-difluoromethoxy-2-methyl-3-oxo-2,3-dihydro-pyridazin-4-yl)-phenyl]-propionic acid]: the IC50 was determined as 0.085 µM at human α4β7 integrin and 0.289 µM on α4β1.
For `COc1cnn(C)c(=O)c1-c1ccc(C[C@H](NC(=O)[C@@H]2C3CCC(CC3)N2C(=O)Cc2ccsc2)C(=O)O)cc1` [Cpd 113], in that order: 0.088 µM and 0.044 µM.
As for `COc1cnn(C)c(=O)c1-c1ccc(C[C@H]2C(=O)OCN2C(=O)c2c(Cl)cccc2Cl)cc1` [Cpd 114, (S)-4-{4-[3-(2,6-Dichloro-benzoyl)-5-oxo-oxazolidin-4-ylmethyl]-phenyl}-5-methoxy-2-methyl-2H-pyridazin-3-one], the IC50 at human α4β7 integrin is 0.093 µM; on α4β1, > 5 µM.
